Values of other authors, collected in patent publication US6750249B1, “Controlled release oral preparations of esculetin and its derivatives” (priority 1998, dated 2004).

Tested on: glycosaminoglycan in the matrix
Details: stimulation of interleukin-1 and the like; Japanese Patent Application Laid-open No. 312925/1994

| SMILES | depression of a decrease in the amount of glycosaminoglycan in the matrix |
| --- | --- |
| Cc1cc(=O)oc2cc(O)c(O)cc12 [4-methyl esculetin] | strongly depress a decrease in the amount of glycosaminoglycan |
| O=c1ccc2cc(O)c(O)cc2o1 [esculetin] | strongly depress a decrease in the amount of glycosaminoglycan |
